Laboratory results taken from US4002615A, “Terpenoid compounds of substituted hydroxyalkyl-pyridines having juvenile hormone activity” (A/S Cheminova, priority 1974, dated 1977).
In brackets after ≈: the same amount, converted by molar mass.

How the values were obtained:
Type in all cases: in vivo
[1] = system: Culex pipiens L.; assay: Culex test (mature larvae, loss of 50% of test animals); settings: concentration producing loss of 50% of test animals, mixtures of isomers, read-out: IC-50 eclos.
Description: (§1) The biological tests are examplified by tests on Tenebrio molitor L, Galleria mellonella L. and Culex pipiens L.
The compounds are tested on mature larvae. The concentration (IC-50 eclos.) is given in ppm.

[2] = system: Tenebrio molitor L; assay: Tenebrio test (topical application to pupae, inhibition of adult characters); settings: topical in acetone to abdomen of 0.5 to 2 hours old pupae; 27° C, 70% RH; mixtures of isomers
Description: as §1
The material in question is applied topically to the abdomen of 0.5 to 2 hours old pupae of the said species, as a solution in acetone. The pupae are held at 27° C and 70% RH, ecdysis occuring 5 to 7 days later. The degree of inhibition of adult characters is referred to an arbitrary scale, where a morphologically perfect adult is given the character 0%, and a perfect second pupae 100%.

[3] = system: Galleria mellonella L.; assay: Galleria test (eggs on impregnated filter paper, prevention of eclosion); settings: amount preventing eclosion of 50% of the eggs, mixtures of isomers
Description: as §1
The test is performed on eggs deposited on impregnated filter paper by the mother moth. The data given in table 2, are the amount necessary for preventing eclosion of 50% of the eggs. The amount (IC-50 eclos.) is given in mg./65 cm^2.

Row | SMILES | LC50 [1] | ID-50 morph. [2] | IC-50 eclos. [3]
1 | CC(C)=CCCC(C)=CCOCc1ccncc1 [Compound 3, 3,7-dimethyl-2,6-octadien-1-yl-(4-pyridyl)methylether] | > 10 mg/L | – | –
2 | CC(C)=CCCC(C)=CCOCc1cccc(C)n1 [Compound 8, 3,7-dimethyl-2,6-octadien-1-yl-(6-methyl-2-pyridyl)methylether] | 10 mg/L (≈ 38.6 µM) | 4 μg/pupa | > 10 mg/65 cm^2
3 | CC(=CCOCc1ccccn1)CCC1OC1(C)C (stereo not shown) [Compound 4, 6,7-epoxy-3,7-dimethyl-2-octen-1-yl-(2-pyridyl)methylether] | 9 mg/L (≈ 34.4 µM) | – | –
4 | CC(C)=CCCC(C)=CCOCc1ccccn1 [Compound 1, 3,7-dimethyl-2,6-octadien-1-yl-(2-pyridyl)methylether] | 5 mg/L (≈ 20.4 µM) | – | –
5 | CCc1ccc(COCC=C(C)CCC2OC2(C)C)nc1 (stereo not shown) [Compound 6, 6,7-epoxy-3,7-dimethyl-2-octen-1-yl-(5-ethyl-2-pyridyl)methylether] | 0.005 mg/L (≈ 0.0173 µM) | – | –
